What was measured:
activated macrophages = details: stated as an observation, no source given; cited from earlier work
CYP 1A1 = CYP 1A1 inducibility/P450 function in primary hepatocytes in collagen sandwich culture (EROD assay, 3-MC induction); format: cell-based; details: mechanism under investigation
Procedure: To study the effect of different compounds on the function of hepatocyte function and phenotype, hepatocytes were isolated according to techniques well known in the art and cultured in a collagen sandwich configuration. Hepatocytes were induced with the addition of 2 nM 3-methylcholanthrene (3-MC). CYP 1A1 was measured using the EROD assay as described in Pearce et al., 1996. Albumin secretion was measured using ELISA, as described in Dunn et al., 1991. Western blot analysis was performed using techniques well known in the art, using an antibody to CYP1A1.

P450 function (CYP 1A1): protection of P450 function
SMILES: N[C@H]1C(O)O[C@H](CO)[C@@H](O)[C@@H]1O (some centres unmarked) [glucosamine]
NO synthesis (activated macrophages): inhibits NO synthesis

— patent US20090137034A1, “METHODS FOR PERFUSION AND PLATING OF PRIMARY HEPATOCYTES AND A MEDIUM THEREFORE” (MASSACHUSETTS INSTITUTE OF TECHNOLOGY, priority 2002, published 2009)
